This is an account of results in patent US12577250B2, “1,2,4-triazolone derivative as DHODH inhibitor, and preparation method therefor and use thereof” (WIGEN BIOMEDICINE TECHNOLOGY (SHANGHAI) CO., LTD., priority 2021, dated 2026).

One series relates to THP-1 cells. The series can be described thus: Anti-proliferative activity on THP-1 cells (CellTiter-Lumi, 72 h). To be noted: read-out: Cell anti-proliferative activity IC50 THP-1. The format is cell-based. Here is the method:
THP-1 cells were seeded into a 384-well plate (Fisher 142762) at 3000 cells per well. The next day, serially diluted compounds were added, and 72 h after the addition, CellTiter-Lumi (Beyotime C0068XL) was added to measure the ATP content in the cells. The growth of the cells was evaluated, and IC50 of the compounds against cell growth was calculated.

The next series deals with DHODH (Homo sapiens, UniProt Q02127). Briefly: Assay against enzyme activity of DHODH (DCIP absorption at 600 nm). The format is biochemical. Here is the method: The enzyme activity of DHODH was assayed through a cascade reaction to determine its ability to catalyze the oxidation of a natural substrate DHO (dihydroorotic acid) to orotic acid while reducing coenzyme Q. The enzyme activity of DHODH was indirectly detected by assaying the ability of the coenzyme Q to reduce a chromogenic substrate DCIP. After the compound and an enzyme reaction mixture were incubated for 5 min, a reaction substrate DHO was added to start the reaction, and the enzyme activity was assayed by assaying the absorption at 600 nm to detect the DCIP exhaustion in a timed manner.
DHODH, sequence (Q02127 whole entry): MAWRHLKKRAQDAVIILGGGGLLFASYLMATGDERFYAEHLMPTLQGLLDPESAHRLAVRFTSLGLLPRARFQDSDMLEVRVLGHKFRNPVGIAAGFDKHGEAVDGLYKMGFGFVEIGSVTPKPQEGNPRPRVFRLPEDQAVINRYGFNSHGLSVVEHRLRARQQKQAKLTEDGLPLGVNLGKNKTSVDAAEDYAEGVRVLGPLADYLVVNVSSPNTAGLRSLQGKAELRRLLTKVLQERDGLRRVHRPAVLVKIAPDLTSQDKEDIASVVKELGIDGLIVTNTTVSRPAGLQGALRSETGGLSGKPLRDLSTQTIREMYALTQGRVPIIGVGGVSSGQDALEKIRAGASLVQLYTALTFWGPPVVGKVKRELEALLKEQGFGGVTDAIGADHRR

Another series relates to MV-4-11 cells. The series can be described thus: Anti-proliferative activity on MV-4-11 cells (CellTiter-Lumi, 72 h). The format is cell-based. The note with it: read-out: Cell anti-proliferative activity IC50 MV-4-11. Here is the method: MV-4-11 cells were seeded into a 384-well plate (Fisher 142762) at 3000 cells per well. The next day, serially diluted compounds were added, and 72 h after the addition, CellTiter-Lumi (Beyotime C0068XL) was added to measure the ATP content in the cells. The growth of the cells was evaluated, and IC50 of the compounds against cell growth was calculated.

The nature of series [1]: Pharmacokinetic evaluation in mice. The format is in vivo, male ICR mice. Here is the method: The compounds were administered by intravenous injection at a dose of 2 mg/kg and oral gavage at a dose of 10 mg/kg (0.5% CMC-Na suspension). 15 male ICR mice were selected, and each mouse was subjected to blood collection at 3 discrete time points, with 3 mice per time point. The time points of sampling were as follows: before administration, and 5 min, 15 min, 30 min, 1 h, 3 h, 5 h, 8 h, 12 h and 24 h after administration. 80 μL of blood was collected from the orbits or hearts of the mice at each time point after administration. All whole blood samples were collected in tubes containing EDTAK2 and centrifuged (1500-1600 rmp/min) at 4° C. for 10 min to isolate plasma, which was then stored in a refrigerator at −90° C. to −60° C. for sample analysis. The compound concentration in the plasma was determined by liquid chromatography-tandem mass spectrometry, and the corresponding pharmacokinetic parameters were obtained according to a plasma concentration-time curve.

[2] abbreviates: Homo sapiens, MV4-11, 72 h, class symbols.
Where [3] appears, read: male, ICR, mouse, plasma, iv, 2 mg/kg.
Where [4] appears, read: male, ICR, mouse, plasma, po, 10 mg/kg (0.5% CMC-Na suspension).

Read-outs that look alike come from different tables or passages of the source.

For the molecule `C[C@H](Oc1nc(-n2nc3n(c2=O)CCC2(CC2)C3)c(F)cc1C(=O)Nc1c(F)cccc1Cl)C(F)(F)F` [Compound 54, (S)—N-(2-chloro-6-fluorophenyl)-5-fluoro-4-(3′-oxo-5′,6′-dihydro-3′H-spiro[cyclopropane-1,7-[1,2,4]triazolo[4,3-α]pyridin]-2′(8′H)-yl)-2-((1,1,1-trifluoropropan-2-yl)oxy)benzamide], the IC50 (commonly the point on the concentration scale where inhibition reaches its midpoint) with THP-1 cells (Homo sapiens) is 0.0245 µM; at DHODH it was < 0.05 µM; with MV-4-11 cells (Homo sapiens, MV4-11, 72 h), 0.00051 µM.
On the same counts, the results for `C[C@H](Oc1cc(-n2nc3n(c2=O)CCCC2(CC2)C3)c(F)cc1C(=O)Nc1c(F)cccc1Cl)C(F)(F)F` [Compound 51] are 0.0476 µM, < 0.05 µM and 0.00545 µM.
In the case of BAY-2402234 [reference compound], the figures for the IC50 with THP-1 cells and in the series on MV-4-11 cells were 0.0356 µM and 0.00382 µM, respectively.
In the case of `Cc1ccc(F)c(NC(=O)c2cc(F)c(-n3nc4n(c3=O)CCC3(CC3)C4)cc2O[C@@H](C)C(F)(F)F)c1` [Compound 19], the IC50 was < 0.05 µM against DHODH and ≤ 0.05 µM in the series on MV-4-11 cells (setting [2]).
With `C[C@H](Oc1cc(-n2nc3n(c2=O)CCC2(CC2)C3)c(F)cc1C(=O)Nc1c(F)cccc1Cl)C1CCC1` [Compound 45], the IC50 against DHODH was < 0.05 µM; with MV-4-11 cells (setting [2]) it was ≤ 0.05 µM.
The like results for `C[C@H](Oc1cc(-n2nc3n(c2=O)CCC2(CC2)C3)c(F)cc1C(=O)Nc1cccc(F)c1)C(F)(F)F` [Compound 9] were, in that order, < 0.05 µM and ≤ 0.05 µM.
For the molecule `C[C@H](Oc1cc(-n2nc3n(c2=O)CCC2(CC2)C3)c(F)cc1C(=O)Nc1c(F)cccc1Cl)C1CCCCC1` [Compound 47], the IC50 is < 0.05 µM at DHODH and ≤ 0.05 µM in the series with MV-4-11 cells (setting [2]).
On the same counts, the results for `Cc1cc(F)ccc1NC(=O)c1cc(F)c(-n2nc3n(c2=O)CCC2(CC2)C3)cc1O[C@@H](C)C(F)(F)F` [Compound 22] are < 0.05 µM and ≤ 0.05 µM.
On the same counts, the results for `Cc1cccnc1NC(=O)c1cc(F)c(-n2nc3n(c2=O)CCC2(CC2)C3)cc1O[C@@H](C)C(F)(F)F` [Compound 33] are < 0.05 µM and 0.05 to 0.5 µM.
On the same counts, the results for `CCC[C@H](C)Oc1cc(-n2nc3n(c2=O)CC2(CC2)C3)c(F)cc1C(=O)Nc1c(F)cccc1Cl` [Compound 50] are < 0.05 µM and ≤ 0.05 µM.
Consider `Cc1cnccc1NC(=O)c1cc(F)c(-n2nc3n(c2=O)CCC2(CC2)C3)cc1O[C@@H](C)C(F)(F)F` [Compound 34], for which the half-inhibitory concentration (IC50) is < 0.05 µM at DHODH and 0.0102 µM in the series on MV-4-11 cells (Homo sapiens, MV4-11, 72 h).
For the molecule `C[C@H](Oc1cc(-n2nc3n(c2=O)CCC2(CC2)C3)c(F)cc1C(=O)Nc1c(F)cccc1Cl)C(F)(F)F` [Compound 1, (S)—N-(2-chloro-6-fluorophenyl)-5-fluoro-4-(3′-oxo-5′,6′-dihydro-3′H-spiro[cyclopropane-1,7-[1,2,4]triazolo[4,3-α]pyridin]-2′(8′H)-yl)-2-((1,1,1-trifluoropropan-2-yl)oxy)benzamide], the IC50 in the series with THP-1 cells (Homo sapiens) came to 0.0276 µM. Besides, the 50% inhibitory concentration (IC50) against DHODH is < 0.05 µM. In addition, in series [1] (setting [3]), the AUC(0-t) (commonly exposure summed from dosing to a finite time, without extrapolation to infinity) was found to be 2530 ng·h/mL; the clearance (commonly the volume of plasma or blood freed of the substance per unit of time) was determined as 13.2 mL/min/kg; the half-life – broadly, the time in which the quantity being followed falls by half – is 1.79 h. In series [1] (male, ICR, mouse, plasma, iv, 2 mg/kg, read-out: Vss), the Vd turned out to be 1.66 L/kg. Moreover, in series [1] (setting [4]), the exposure AUC(0-t) came to 7780 ng·h/mL; the Cmax (usually the maximum level reached in the sampled fluid or tissue) was determined as 2240 ng/mL; the time to peak (Tmax) – broadly, the time at which the peak concentration occurs – stood at 0.25 h; the half-life was 2.07 h. The “oral bioavailability (in words)” value in series [1] (po) is listed as “good oral bioavailability”. For the same molecule, in series [1] (po 10 mg/kg vs iv 2 mg/kg), the F is given as 61.7%. The IC50 in the series with MV-4-11 cells (Homo sapiens, MV4-11, 72 h) is 0.00127 µM.
With `C[C@H](Oc1cc(-n2nc3n(c2=O)CC2(CC2)C3)c(F)cc1C(=O)Nc1c(F)cccc1Cl)C1CCCCC1` [Compound 49], the half-maximal inhibitory concentration (IC50) is < 0.05 µM on DHODH and ≤ 0.05 µM with MV-4-11 cells (setting [2]).
